Our source for the GI50 values is patent US11535629B2, “Dioxoloisoquinolinone derivatives and use thereof” (HANMI PHARMACEUTICAL CO., LTD., priority 2020, dated 2022).

This experiment concerns KARPAS-422 cells. Put plainly: Cell growth inhibition test (CTG method). The conditions noted are these: KARPAS-422 (EZH2^Y641N mutant), culturing for 7 days, read-out: Cell growth inhibitory activity (GI50, nM) KARPAS-422 (EZH2^Y641N mutant). It counts as cell-based. As for the experimental part: The cultured cell strain was prepared at 1.8×10^4 cells/400 μL and placed in a 48-well plate.

Setting [1] is: Homo sapiens, KARPAS-422, 168 h.

Structures are written as SMILES. Read-outs that look alike come from different tables or passages of the source. Some results are limits rather than exact numbers.

With `Cc1cc(C)c(CN2CCc3c(c(C)c4c(c3C3CCCC3)OC(C)(C35CCC(N(C)C)(CC3)CC5)O4)C2=O)c(=O)[nH]1` (stereo not drawn) [Compound 16, 9-cyclopentyl-6-((4,6-dimethyl-2-oxo-1,2-dihydropyridin-3-yl)methyl)-2-(4-(dimethylamino)bicyclo[2.2.2]octan-1-yl)-2,4-dimethyl-7,8-dihydro-[1,3]dioxolo[4,5-g]isoquinolin-5(6H)-one], the GI50 under setting [1] was found to be 36 nM.

Take `CCc1c2c(c(C)c3c1OC(C)(C14CCC(N(C)C)(CC1)CC4)O3)C(=O)N(Cc1c(C)cc(C)[nH]c1=O)CC2` (stereo not drawn) [Compound 18, 6-((4,6-dimethyl-2-oxo-1,2-dihydropyridin-3-yl)methyl)-2-(4-(dimethylamino)bicyclo[2.2.2]octan-1-yl)-9-ethyl-2,4-dimethyl-7,8-dihydro-[1,3]dioxolo[4,5-g]isoquinolin-5(6H)-one]: the concentration for 50% growth inhibition (GI50) under setting [1] is 27 nM.

As for `Cc1cc(C)c(CN2CCc3c(c(C)c4c(c3C(C)C)OC(C)(C35CCC(N(C)C)(CC3)CC5)O4)C2=O)c(=O)[nH]1` (stereo not drawn) [Compound 20, 6-((4,6-dimethyl-2-oxo-1,2-dihydropyridin-3-yl)methyl)-2-(4-(dimethylamino)bicyclo[2.2.2]octan-1-yl)-9-isopropyl-2,4-dimethyl-7,8-dihydro-[1,3]dioxolo[4,5-g]isoquinolin-5(6H)-one], the GI50 under setting [1] came to 47 nM.

For `C#Cc1c2c(c(C)c3c1OC(C)(C14CCC(N(C)C)(CC1)CC4)O3)C(=O)N(Cc1c(C)cc(C)[nH]c1=O)CC2` (stereo not drawn) [Compound 21, 6-((4,6-dimethyl-2-oxo-1,2-dihydropyridin-3-yl)methyl)-2-(4-(dimethylamino)bicyclo[2.2.2]octan-1-yl)-9-ethynyl-2,4-dimethyl-7,8-dihydro-[1,3]dioxolo[4,5-g]isoquinolin-5(6H)-one], the GI50 under setting [1] came to 18 nM.

Turning to `Cc1cc(C)c(CN2CCc3c(C)c4c(c(C)c3C2=O)OC(C)(C23CCC(N(C)C)(CC2)CC3)O4)c(=O)[nH]1` (stereo not drawn) [Compound 22, 6-((4,6-dimethyl-2-oxo-1,2-dihydropyridin-3-yl)methyl)-2-(4-(dimethylamino)bicyclo[2.2.2]octan-1-yl)-2,4,9-trimethyl-7,8-dihydro-[1,3]dioxolo[4,5-g]isoquinolin-5(6H)-one], the 50% growth inhibitory concentration (GI50) fell in the range of 12 to 19 nM.

Take `Cc1cc(C)c(CN2CCc3c(C)c4c(c(C)c3C2=O)OC(C)(C23CCC(N(C)C)(CC2)CC3)O4)c(=O)[nH]1` (stereo not drawn) [Compound 24, 6-((4,6-dimethyl-2-oxo-1,2-dihydropyridin-3-yl)methyl)-2-(4-(dimethylamino)bicyclo[2.2.2]octan-1-yl)-2,4,9-trimethyl-7,8-dihydro-[1,3]dioxolo[4,5-g]isoquinolin-5(6H)-one]: the GI50 lay within 100 to 1000 nM.

With `COc1cc(C)[nH]c(=O)c1CN1CCc2c(C)c3c(c(C)c2C1=O)OC(C)(C12CCC(N(C)C)(CC1)CC2)O3` (stereo not drawn) [Compound 25, 2-(4-(dimethylamino)bicyclo[2.2.2]octan-1-yl)-6-((4-methoxy-6-methyl-2-oxo-1,2-dihydropyridin-3-yl)methyl)-2,4,9-trimethyl-7,8-dihydro[1,3]dioxolo[4,5-g]isoquinolin-5(6H)-one], the GI50 under setting [1] was 14 nM.

For `CCCc1cc(C)[nH]c(=O)c1CN1CCc2c(C)c3c(c(C)c2C1=O)OC(C)(C12CCC(N(C)C)(CC1)CC2)O3` (stereo not drawn) [Compound 26, 2-(4-(dimethylamino)bicyclo[2.2.2]octan-1-yl)-2,4,9-trimethyl-6-((6-methyl-2-oxo-4-propyl-1,2-dihydropyridin-3-yl)methyl)-7,8-dihydro[1,3]dioxolo[4,5-g]isoquinolin-5(6H)-one], under setting [1], the GI50 is 46 nM.

On to `Cc1cc(C)c(CN2CCc3c(C)c4c(c(Cl)c3C2=O)OC(C)(C23CCC(N(C)C)(CC2)CC3)O4)c(=O)[nH]1` (stereo not drawn) [Compound 27, 4-chloro-6-((4,6-dimethyl-2-oxo-1,2-dihydropyridin-3-yl)methyl)-2-(4-(dimethylamino)bicyclo[2.2.2]octan-1-yl)-2,9-dimethyl-7,8-dihydro-[1,3]dioxolo[4,5-g]isoquinolin-5(6H)-one], for which the GI50 under setting [1] was 9.8 nM.

For the compound `Cc1cc(C)c(CN2CCc3c(Cl)c4c(c(Cl)c3C2=O)OC(C)(C23CCC(N(C)C)(CC2)CC3)O4)c(=O)[nH]1` (stereo not drawn) [Compound 28, 4,9-dichloro-6-((4,6-dimethyl-2-oxo-1,2-dihydropyridin-3-yl)methyl)-2-(4-(dimethylamino)bicyclo[2.2.2]octan-1-yl)-2-methyl-7,8-dihydro-[1,3]dioxolo[4,5-g]isoquinolin-5(6H)-one], under setting [1], the GI50 came out at 13 nM.

In the case of `Cc1cc(C)c(CN2CCc3c(Cl)c4c(c(C)c3C2=O)OC(C23CCC(N(C)C)(CC2)CC3)O4)c(=O)[nH]1` (stereo not drawn) [Compound 29, 9-chloro-6-((4,6-dimethyl-2-oxo-1,2-dihydropyridin-3-yl)methyl)-2-(4-(dimethylamino)bicyclo[2.2.2]octan-1-yl)-4-methyl-7,8-dihydro-[1,3]dioxolo[4,5-g]isoquinolin-5(6H)-one], the GI50 under setting [1] was determined as 36 nM.

For the compound `Cc1cc(C)c(CN2CCc3c(c(C)c4c(c3-c3ccco3)O[C@@](C)([C@H]3CC[C@H](N(C)C)CC3)O4)C2=O)c(=O)[nH]1` [Compound 31, (S)-6-((4,6-dimethyl-2-oxo-1,2-dihydropyridin-3-yl)methyl)-2-(trans-4-(dimethylamino)cyclohexyl)-9-(furan-2-yl)-2,4-dimethyl-7,8-dihydro-[1,3]dioxolo[4,5-g]isoquinolin-5(6H)-one], the GI50 under setting [1] is more than 1000 nM.

For the compound `Cc1cc(C)c(CN2CCc3c(c(C)c4c(c3-c3cccs3)O[C@@](C)([C@H]3CC[C@H](N(C)C)CC3)O4)C2=O)c(=O)[nH]1` [Compound 33, (S)-6-((4,6-dimethyl-2-oxo-1,2-dihydropyridin-3-yl)methyl)-2-(trans-4-(dimethylamino)cyclohexyl)-2,4-dimethyl-9-(thiophen-2-yl)-7,8-dihydro-[1,3]dioxolo[4,5-g]isoquinolin-5(6H)-one], the 50% growth inhibitory concentration (GI50) under setting [1] is more than 1000 nM.

Turning to `Cc1cc(C)c(CN2CCc3c(c(C)c4c(c3-c3ccncc3)O[C@@](C)([C@H]3CC[C@H](N(C)C)CC3)O4)C2=O)c(=O)[nH]1` [Compound 35, (S)-6-((4,6-dimethyl-2-oxo-1,2-dihydropyridin-3-yl)methyl)-2-(trans-4-(dimethylamino)cyclohexyl)-2,4-dimethyl-9-(pyridin-4-yl)-7,8-dihydro-[1,3]dioxolo[4,5-g]isoquinolin-5(6H)-one], the GI50 under setting [1] was more than 1000 nM.

`Cc1cc(C)c(CN2CCc3c(c(C)c4c(c3-c3ccc(F)nc3)O[C@](C)([C@H]3CC[C@H](N(C)C)CC3)O4)C2=O)c(=O)[nH]1` [Compound 36, (R)-6-((4,6-dimethyl-2-oxo-1,2-dihydropyridin-3-yl)methyl)-2-(trans-4-(dimethylamino)cyclohexyl)-9-(6-fluoropyridin-3-yl)-2,4-dimethyl-7,8-dihydro-[1,3]dioxolo[4,5-g]isoquinolin-5(6H)-one]: the concentration for 50% growth inhibition (GI50) under setting [1] was 5.8 nM.

With `Cc1cc(C)c(CN2CCc3c(c(C)c4c(c3-c3ccc(F)nc3)O[C@@](C)([C@H]3CC[C@H](N(C)C)CC3)O4)C2=O)c(=O)[nH]1` [Compound 37, (S)-6-((4,6-dimethyl-2-oxo-1,2-dihydropyridin-3-yl)methyl)-2-(trans-4-(dimethylamino)cyclohexyl)-9-(6-fluoropyridin-3-yl)-2,4-dimethyl-7,8-dihydro-[1,3]dioxolo[4,5-g]isoquinolin-5(6H)-on], the GI50 under setting [1] is more than 1000 nM.

As to `Cc1cc(C)c(CN2CCc3c(c(C)c4c(c3-c3cnn(C)c3)O[C@](C)([C@H]3CC[C@H](N(C)C)CC3)O4)C2=O)c(=O)[nH]1` [Compound 38, (R)-6-((4,6-dimethyl-2-oxo-1,2-dihydropyridin-3-yl)methyl)-2-(trans-4-(dimethylamino)cyclohexyl)-2,4-dimethyl-9-(1-methyl-1H-pyrazol-4-yl)-7,8-dihydro-[1,3]dioxolo[4,5-g]isoquinolin-5(6H)-on], under setting [1], the 50% growth inhibitory concentration (GI50) came to 5.8 nM.

With `Cc1cc(C)c(CN2CCc3c(c(C)c4c(c3-c3cnn(C)c3)O[C@@](C)([C@H]3CC[C@H](N(C)C)CC3)O4)C2=O)c(=O)[nH]1` [Compound 39, (S)-6-((4,6-dimethyl-2-oxo-1,2-dihydropyridin-3-yl)methyl)-2-(trans-4-(dimethylamino)cyclohexyl)-2,4-dimethyl-9-(1-methyl-1H-pyrazol-4-yl)-7,8-dihydro-[1,3]dioxolo[4,5-g]isoquinolin-5(6H)-one], the GI50 under setting [1] is more than 1000 nM.

For the compound `Cc1cc(C)c(CN2CCc3c(c(C)c4c(c3-c3ccc(C)o3)O[C@@](C)([C@H]3CC[C@H](N(C)C)CC3)O4)C2=O)c(=O)[nH]1` [Compound 41, (S)-6-((4,6-dimethyl-2-oxo-1,2-dihydropyridin-3-yl)methyl)-2-(trans-4-(dimethylamino)cyclohexyl)-2,4-dimethyl-9-(5-methylfuran-2-yl)-7,8-dihydro-[1,3]dioxolo[4,5-g]isoquinolin-5(6H)-one], under setting [1], the GI50 was more than 1000 nM.

`Cc1cc(C)c(CN2CCc3c(c(C)c4c(c3-c3ccc(C)s3)O[C@](C)([C@H]3CC[C@H](N(C)C)CC3)O4)C2=O)c(=O)[nH]1` [Compound 42, (R)-6-((4,6-dimethyl-2-oxo-1,2-dihydropyridin-3-yl)methyl)-2-(trans-4-(dimethylamino)cyclohexyl)-2,4-dimethyl-9-(5-methylthiophen-2-yl)-7,8-dihydro-[1,3]dioxolo[4,5-g]isoquinolin-5(6H)-one]: the 50% growth inhibitory concentration (GI50) under setting [1] was determined as 5.7 nM.

As for `Cc1cc(C)c(CN2CCc3c(c(C)c4c(c3-c3ccc(C)s3)O[C@@](C)([C@H]3CC[C@H](N(C)C)CC3)O4)C2=O)c(=O)[nH]1` [Compound 43, (S)-6-((4,6-dimethyl-2-oxo-1,2-dihydropyridin-3-yl)methyl)-2-(trans-4-(dimethylamino)cyclohexyl)-2,4-dimethyl-9-(5-methylthiophen-2-yl)-7,8-dihydro-[1,3]dioxolo[4,5-g]isoquinolin-5(6H)-one], the GI50 under setting [1] is more than 1000 nM.
